This note sets out measurements from patent US20060276400A1, “Modulation of cholesteryl ester transfer protein (CETP) activity” (priority 2005, published 2006).

Test [1] concerns serum HDL-cholesterol (HDLc). Also noted: species or system human CETP transgenic mice. As to conditions: in vivo.
Another test has as its system human CETP. Briefly: ELISA anti-huCETP antibody titers in sera of immunized human CETP transgenic mice. To be noted: in vivo; for average anti-huCETP titer: sc.
A further test relates to serum CETP activity. In words: Serum CETP activity (fluorescent cholesteryl ester transfer assay) in immunized human CETP transgenic mice. To be noted: in vivo.
Test [2] has as its system endogenous serum CETP activity. In words: Change in endogenous serum CETP activity in rabbits immunized with full-length human CETP. As to conditions: week 12 post-injection vs week -1 pre-injection, 0.2 mg huCETP in CFA, boosters in IFA; for increase in CETP activity following vaccination: Rabbit #1.

Turning to “CSKGTSHEAGIVCRITKPALLQYIKANSKFIGITE [CETi-2]”, in test [1], the “change in serum HDLc levels in contrast to control group (in words)” value is on record as “reduction”. Moreover, the “average anti-huCETP titer” value in the test with human CETP is given as about 0.750 OD. Further, the “effect on serum CETP activity (in words)” value with serum CETP activity was “no effect on average”.

In the case of “SKGTSHEAGIVCRITKPALLQYIKANSKFIGITE [CETi-2.1]”, in the test with human CETP, the “anti-huCETP titer lower than those of the CETi-1 and CETi-2 groups” value was “approx. 30%”.

As to “CQYIKANSKFIGITEFGFPEHLLVDFLQSLS [CETi-1, reference compound]”, the “change in serum HDLc levels in contrast to control group (in words)” value in test [1] was “reduction”. Besides, the “average anti-huCETP titer” value with human CETP is about 0.750 OD. Also, the “effect on serum CETP activity (in words)” value in the test with serum CETP activity is given as “appeared to elevate CETP activity”.

B1: human CETP: full-length human CETP (SEQ ID NO:7) purified from conditioned media of a huCETP transformed CHO cell line (protein)
chain: CSKGTSHEAGIVCRITKPALLVLNHETAKVIQTAFQRASYPDITGEKAMMLLGQVKYGLHNIQISHLSIASSQVELVEAKSIDVSIQNVSVVFKGTLKYGYTTAWWLGIDQSIDFEIDSAIDLQINTQLTCDSGRVRTDAPDCYLSFHKLLLHLQGEREPGWIKQLFTNFISFTLKLVLKGQICKEINVISNIMADFVQTRAASILSDGDIGVDISLTGDPVITASYLESHHKGHFIYKNVSEDLPLPTFSPTLLGDSRMLYFWFSERVFHSLAKVAFQDGRLMLSLMGDEFKAVLETWGFNTNQEIFQEVVGGFPSQAQVTVHCLKMPKISCQNKGVVVNSSVMVKFLFPRPDQQHSVAYTFEEDIVTTVQASYSKKKLFLSLLDFQITPKTVSNLTESSSESIQSFLQSMITAVGIPEVMSRLEVVFTALMNSKGVSLFDIINPEIITRDGFLLLQMDFGFPEHLLVDFLQSLS
modifications: Human; PEPTIDE (1)..(476) Amino aid sequence of full-length mature human CETP protein
On to B1, for which the “increase in CETP activity following vaccination” value was “+85%” in test [2] and 85% in test [2] (listed as whole human CETP). Also, the “decrease in CETP activity following vaccination” value in test [2] (Rabbit #11, listed as whole human CETP) came out at 77%.
